Experimental data published in patent publication US9775904B2 (priority 2014, dated 2017).
Where two headings read alike, the source gives them in different places.

Assays:
[1] = target: T1, human GIP receptor (hGIP-R) (Homo sapiens, UniProt P48546); assay: cAMP response of HEK-293 cells expressing human GIP receptor (HTRF); format: cell-based
T1 construct: expressed in transfected cells
T1 sequence (P48546 22-466): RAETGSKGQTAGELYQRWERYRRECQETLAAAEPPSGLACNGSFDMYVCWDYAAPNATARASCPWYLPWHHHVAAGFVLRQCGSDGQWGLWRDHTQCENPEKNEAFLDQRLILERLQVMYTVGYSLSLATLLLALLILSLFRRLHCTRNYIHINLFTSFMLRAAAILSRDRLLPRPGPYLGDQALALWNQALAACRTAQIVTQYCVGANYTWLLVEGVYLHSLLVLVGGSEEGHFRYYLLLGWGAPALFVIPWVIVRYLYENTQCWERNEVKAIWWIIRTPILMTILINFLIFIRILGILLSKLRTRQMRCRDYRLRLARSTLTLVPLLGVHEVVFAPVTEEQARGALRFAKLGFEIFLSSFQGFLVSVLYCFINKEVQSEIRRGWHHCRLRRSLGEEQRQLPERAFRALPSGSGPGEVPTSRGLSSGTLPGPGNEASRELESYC
Method: (§1) cAMP content of cells was determined using a kit from Cisbio Corp. (cat. no. 62AM4PEC) based on HTRF (Homogenous Time Resolved Fluorescence). For preparation, cells were split into T175 culture flasks and grown overnight to near confluency in medium (DMEM/10% FBS). Medium was then removed and cells washed with PBS lacking calcium and magnesium, followed by proteinase treatment with accutase (Sigma-Aldrich cat. no. A6964). Detached cells were washed and resuspended in assay buffer (1×HBSS; 20 mM HEPES, 0.1% BSA, 2 mM IBMX) and cellular density determined. They were then diluted to 400000 cells/ml and 25 μl-aliquots dispensed into the wells of 96-well plates. For measurement, 25 μl of test compound in assay buffer was added to the wells, followed by incubation for 30 minutes at room temperature.

[2] = Chronic effect on body weight and body fat in female DIO C57BL/6 mice, 4 weeks; format: in vivo; details: 50 μg/kg qd s.c.
Method: (§2) C57BL/6 Harlan mice are housed in groups in a specific pathogen-free barrier facility on a 12 h light/dark cycle with free access to water and standard or high-fat diet. After prefeeding on high-fat diet, mice are stratified to treatment groups (n=8), so that each group has similar mean body weight. An age-matched group with ad-libitum access to standard chow is included as standard control group. Before the experiment, mice are subcutaneously (s.c.) injected with vehicle solution and weighed for 3 days to acclimate them to the procedures.
2) Chronic effect on body weight in female DIO mice: mice are treated once (s.c. in evening hours) or twice daily (s.c. in the morning and in the evening), respectively, at the beginning and the end of the light phase with either vehicle or exendin-4 derivatives for 4 weeks. Body weight is recorded daily. Two days before start of treatment and on day 26, total fat mass is measured by nuclear magnetic resonance (NMR).
(§3) Statistical analyses are performed with Everstat 6.0 by repeated measures two-way ANOVA and Dunnetts post-hoc analyses (glucose profile) and 1-way-ANOVA, followed by Dunnetts post-hoc test (body weight, body fat). Differences versus vehicle-treated DIO control mice are considered statistically significant at the p<0.05 level.
Body weight was recorded daily, and body fat content was determined before the start and after 4 weeks of treatment. […] These changes resulted from a decrease in body fat, as shown by the absolute changes in body fat content (Table 10, FIG. 3).
Body weight was recorded daily, and body fat content was determined before the start and after 4 weeks of treatment.

[3] = Solubility testing in buffer (HPLC-UV); format: physicochemical
Method: Prior to the testing of solubility and stability of a peptide batch, its purity (HPLC-UV) was determined.
. Therefore, solutions from solid samples were prepared in different buffer systems with a concentration of 10 mg/mL compound based on the previously determined % purity. HPLC-UV was performed after 2 h of gentle agitation from the supernatant, which was obtained by 20 min of centrifugation at 4500 rpm.
[…]. This analysis also served as starting point (t0) for the stability testing.

[4] = Acute effect on blood glucose in fed female DIO C57BL/6 mice; format: in vivo; details: 50 μg/kg s.c. once daily; t=1, 2, 3, 4, 6 and 24 h post dosing; p<0.001
Method: as §2
1) Acute effect on blood glucose in fed female DIO mice: initial blood samples are taken just before first administration (s.c.) of vehicle (phosphate buffer solution) or the exendin-4 derivatives (dissolved in phosphate buffer), respectively. The volume of administration is 5 mL/kg. The animals have access to water and their corresponding diet during the experiment. Blood glucose levels are measured at t=0 h, t=1 h, t=2 h, t=3 h, t=4 h, t=6 h and t=24 h (method: Accu-Check glucometer). Blood sampling is performed by tail incision without anaesthesia.
as §3
At predefined time points, more blood samples were taken to measure blood glucose and generate the blood glucose profile over 24 h.

[5] = target: T2, human glucagon receptor (hGlucagon R) (Homo sapiens, UniProt P47871); assay: cAMP response of HEK-293 cells expressing human glucagon receptor (HTRF); format: cell-based
T2 construct: expressed in transfected cells
Method: as §1

[6] = target: T3, human GLP-1 receptor (hGLP-1 R) (Homo sapiens, UniProt P43220); assay: cAMP response of HEK-293 cells expressing human GLP-1 receptor (HTRF); format: cell-based; details: Table 6
T3 construct: expressed in transfected cells
Method: as §1

[7] = pH 4.5, target concentration 10 mg/ml, read-out: solubility [mg/ml] pH 4.5
[8] = pH 7.4, target concentration 10 mg/ml, read-out: solubility [mg/ml] pH 7.4

T2 sequence (P47871 26-477): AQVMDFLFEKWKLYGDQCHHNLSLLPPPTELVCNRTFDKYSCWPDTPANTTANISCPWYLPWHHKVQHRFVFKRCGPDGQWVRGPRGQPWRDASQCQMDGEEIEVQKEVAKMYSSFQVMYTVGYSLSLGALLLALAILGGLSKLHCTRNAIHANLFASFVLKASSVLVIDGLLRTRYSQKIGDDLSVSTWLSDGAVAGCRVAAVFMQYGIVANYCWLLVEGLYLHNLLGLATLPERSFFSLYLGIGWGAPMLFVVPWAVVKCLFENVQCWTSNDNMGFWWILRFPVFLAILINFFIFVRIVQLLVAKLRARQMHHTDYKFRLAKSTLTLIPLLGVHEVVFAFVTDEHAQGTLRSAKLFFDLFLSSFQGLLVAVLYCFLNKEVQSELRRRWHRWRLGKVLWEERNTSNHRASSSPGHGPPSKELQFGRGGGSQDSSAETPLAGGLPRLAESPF
T3 sequence (P43220 24-463): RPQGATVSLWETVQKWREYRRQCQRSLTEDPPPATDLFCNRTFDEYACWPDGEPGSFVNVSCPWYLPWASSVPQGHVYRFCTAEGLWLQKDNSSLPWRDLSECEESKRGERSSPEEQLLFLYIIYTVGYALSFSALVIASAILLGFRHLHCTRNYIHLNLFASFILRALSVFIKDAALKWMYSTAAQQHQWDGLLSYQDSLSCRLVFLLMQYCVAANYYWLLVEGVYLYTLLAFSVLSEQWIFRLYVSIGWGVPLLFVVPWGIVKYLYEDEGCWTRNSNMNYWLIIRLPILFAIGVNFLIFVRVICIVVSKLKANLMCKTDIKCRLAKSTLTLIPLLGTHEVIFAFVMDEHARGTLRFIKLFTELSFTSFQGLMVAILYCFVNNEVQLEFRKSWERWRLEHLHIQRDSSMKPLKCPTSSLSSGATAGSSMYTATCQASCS

Compound: CCCCCCCCCCCCCCCC(=O)N[C@@H](CCC(=O)N[C@@H](CCC(=O)NCCCC[C@H](NC(=O)[C@H](CCC(N)=O)NC(=O)[C@H](CCCCN)NC(=O)[C@H](CO)NC(=O)[C@H](CC(C)C)NC(=O)[C@H](CC(=O)O)NC(=O)[C@H](CO)NC(=O)[C@@H](NC(=O)[C@H](Cc1ccccc1)NC(=O)[C@@H](NC(=O)CNC(=O)[C@H](CCC(N)=O)NC(=O)C(C)(C)NC(=O)[C@@H](N)Cc1c[nH]cn1)[C@@H](C)O)[C@@H](C)O)C(=O)N[C@@H](CC(=O)O)C(=O)N[C@@H](CCC(=O)O)C(=O)N[C@@H](CCC(N)=O)C(=O)N[C@@H](CCCNC(=N)N)C(=O)N[C@@H](C)C(=O)N[C@@H](CCCCN)C(=O)N[C@@H](CC(C)C)C(=O)N[C@@H](Cc1ccccc1)C(=O)N[C@H](C(=O)N[C@@H](CCC(=O)O)C(=O)N[C@@H](Cc1c[nH]c2ccccc12)C(=O)N[C@@H](CC(C)C)C(=O)NC(C)(C)C(=O)N[C@@H](CCCCN)C(=O)NCC(=O)NCC(=O)N1CCC[C@H]1C(=O)N[C@@H](CO)C(=O)N[C@@H](CO)C(=O)NCC(=O)N[C@@H](C)C(=O)N1CCC[C@H]1C(=O)N1CCC[C@H]1C(=O)N1CCC[C@H]1C(=O)N[C@@H](CO)C(N)=O)[C@@H](C)CC)C(=O)O)C(=O)O [SEQ ID NO: 15, H-Aib-Q-G-T-F-T-S-D-L-S-K-Q-K(γE-γE-x53)-D-E-Q-R-A-K-L-F-I-E-W-L-Aib-K-G-G-P-S-S-G-A-P-P-P-S-NH2]
- EC50 ([1]; Table 7, comparison of residue in position 14, read-out: EC50 hGIP-1): 11.9 nM
- Day on which significant body weight decrease begins ([2]; 4 weeks, continuing through the end of the study): 4 days
- Daily body weight compared to vehicle DIO control mice ([2]; 4 weeks, p>0.001 by the end of the study (so in the source)): statistically significant decrease
- Body fat change ([2]; DIO mice, 4-week treatment, NMR, mean ± SEM): -4.01 ± 0.68 g
- Overall weight change ([2]; DIO mice, 4-week treatment, mean ± SEM): -4.59 ± 1.1 g
- solubility at 2 h [3, 7]: > 8 mg/mL
- solubility at 2 h [3, 8]: > 8 mg/mL
- Blood glucose compared to DIO control mice [4]: significant decrease in blood glucose
- EC50 ([5]; Table 7, comparison of residue in position 14): 0.394 nM

Compound: CCCCCCCCCCCCCCCC(=O)N[C@@H](CCC(=O)NCCCC[C@H](NC(=O)[C@H](CCC(N)=O)NC(=O)[C@H](CCCCN)NC(=O)[C@H](CO)NC(=O)[C@H](CC(C)C)NC(=O)[C@H](CC(=O)O)NC(=O)[C@H](CO)NC(=O)[C@@H](NC(=O)[C@H](Cc1ccccc1)NC(=O)[C@@H](NC(=O)CNC(=O)[C@H](CCC(N)=O)NC(=O)C(C)(C)NC(=O)[C@@H](N)Cc1c[nH]cn1)[C@@H](C)O)[C@@H](C)O)C(=O)N[C@@H](CC(=O)O)C(=O)N[C@@H](CCC(=O)O)C(=O)N[C@@H](CCC(N)=O)C(=O)N[C@@H](CCCNC(=N)N)C(=O)N[C@@H](C)C(=O)N[C@@H](CCCCN)C(=O)N[C@@H](CC(C)C)C(=O)N[C@@H](Cc1ccccc1)C(=O)N[C@H](C(=O)N[C@@H](CCC(=O)O)C(=O)N[C@@H](Cc1c[nH]c2ccccc12)C(=O)N[C@@H](CC(C)C)C(=O)NC(C)(C)C(=O)N[C@@H](C)C(=O)NCC(=O)NCC(=O)N1CCC[C@H]1C(=O)N[C@@H](CO)C(=O)N[C@@H](CO)C(=O)NCC(=O)N[C@@H](C)C(=O)N1CCC[C@H]1C(=O)N1CCC[C@H]1C(=O)N1CCC[C@H]1C(=O)N[C@@H](CO)C(N)=O)[C@@H](C)CC)C(=O)O [SEQ ID NO: 10, H-Aib-Q-G-T-F-T-S-D-L-S-K-Q-K(γE-x53)-D-E-Q-R-A-K-L-F-I-E-W-L-Aib-A-G-G-P-S-S-G-A-P-P-P-S-NH2]
- EC50 ([1]; Table 6, read-out: EC50 hGIP-R): 0.89 nM
- EC50 [6]: 0.0035 nM
- EC50 ([5]; Table 6): 0.0524 nM

Compound: CCCCCCCCCCCCCCCCCC(=O)N[C@@H](CCC(=O)NCCCC[C@H](NC(=O)[C@H](CCC(N)=O)NC(=O)[C@H](CCCCN)NC(=O)[C@H](CO)NC(=O)[C@H](CC(C)C)NC(=O)[C@H](CC(=O)O)NC(=O)[C@H](CO)NC(=O)[C@@H](NC(=O)[C@H](Cc1ccccc1)NC(=O)[C@@H](NC(=O)CNC(=O)[C@H](CCC(N)=O)NC(=O)C(C)(C)NC(=O)[C@@H](N)Cc1c[nH]cn1)[C@@H](C)O)[C@@H](C)O)C(=O)N[C@@H](CC(=O)O)C(=O)N[C@@H](CCC(=O)O)C(=O)N[C@@H](CCC(N)=O)C(=O)N[C@@H](CCCNC(=N)N)C(=O)N[C@@H](C)C(=O)N[C@@H](CCCCN)C(=O)N[C@@H](CC(C)C)C(=O)N[C@@H](Cc1ccccc1)C(=O)N[C@H](C(=O)N[C@@H](CCC(=O)O)C(=O)N[C@@H](Cc1c[nH]c2ccccc12)C(=O)N[C@@H](CC(C)C)C(=O)NC(C)(C)C(=O)N[C@@H](C)C(=O)NCC(=O)NCC(=O)N1CCC[C@H]1C(=O)N[C@@H](CO)C(=O)N[C@@H](CO)C(=O)NCC(=O)N[C@@H](C)C(=O)N1CCC[C@H]1C(=O)N1CCC[C@H]1C(=O)N1CCC[C@H]1C(=O)N[C@@H](CO)C(N)=O)[C@@H](C)CC)C(=O)O [SEQ ID NO: 9, H-Aib-Q-G-T-F-T-S-D-L-S-K-Q-K(γE-x70)-D-E-Q-R-A-K-L-F-I-E-W-L-Aib-A-G-G-P-S-S-G-A-P-P-P-S-NH2]
- EC50 ([1]; Table 6, read-out: EC50 hGIP-R): 1.16 nM
- EC50 [6]: 0.0064 nM
- EC50 ([5]; Table 6): 0.0154 nM

Compound: CCCCCCCCCCCCCCCC(=O)N[C@@H](CCC(=O)N[C@@H](CCC(=O)NCCCC[C@H](NC(=O)[C@H](CCC(N)=O)NC(=O)[C@H](CCCCN)NC(=O)[C@H](CO)NC(=O)[C@H](CC(C)C)NC(=O)[C@H](CC(=O)O)NC(=O)[C@H](CO)NC(=O)[C@@H](NC(=O)[C@H](Cc1ccccc1)NC(=O)[C@@H](NC(=O)CNC(=O)[C@H](CCC(N)=O)NC(=O)C(C)(C)NC(=O)[C@@H](N)Cc1c[nH]cn1)[C@@H](C)O)[C@@H](C)O)C(=O)N[C@@H](CC(=O)O)C(=O)N[C@@H](CCC(=O)O)C(=O)N[C@@H](CCC(N)=O)C(=O)N[C@@H](CCCNC(=N)N)C(=O)N[C@@H](C)C(=O)N[C@@H](CCCCN)C(=O)N[C@@H](CC(C)C)C(=O)N[C@@H](Cc1ccccc1)C(=O)N[C@H](C(=O)N[C@@H](CCC(=O)O)C(=O)N[C@@H](Cc1c[nH]c2ccccc12)C(=O)N[C@@H](CC(C)C)C(=O)NC(C)(C)C(=O)N[C@@H](CCCCN)C(=O)N[C@H](C)C(=O)NCC(=O)N1CCC[C@H]1C(=O)N[C@@H](CO)C(=O)N[C@@H](CO)C(=O)NCC(=O)N[C@@H](C)C(=O)N1CCC[C@H]1C(=O)N1CCC[C@H]1C(=O)N1CCC[C@H]1C(=O)N[C@@H](CO)C(N)=O)[C@@H](C)CC)C(=O)O)C(=O)O [SEQ ID NO: 14, H-Aib-Q-G-T-F-T-S-D-L-S-K-Q-K(γE-γE-x53)-D-E-Q-R-A-K-L-F-I-E-W-L-Aib-K-dAla-G-P-S-S-G-A-P-P-P-S-NH2]
- solubility at 2 h [3, 7]: > 8 mg/mL
- solubility at 2 h [3, 8]: > 8 mg/mL
